Measured values taken from article doi:10.1101/2024.07.22.604525v1 (bioRxiv, 2024).
Like-named read-outs stand apart in the source and are kept apart here. Where a SMILES comes first, the peptide text is derived from it.

Assays:
C57BL/6J male SPF mice = experiment: Preliminary safety evaluation in mice; format: in vivo; conditions: 10 mg/kg and 100 mg/kg, gavage 3 times per week, 4 weeks, n = 6 mice/group
HFD-fed mice [1] = experiment: HFD-fed obese mice, VAMP for 1 week; format: in vivo; conditions: HFD 8 weeks, then VAMP 50 mg/kg daily for 1 week, vs vehicle, n = 6
HFD-fed mice [2] = format: in vivo; conditions: 8 weeks
ob/ob mice = experiment: ob/ob mice, VAMP for 4 weeks; format: in vivo; conditions: VAMP 50 mg/kg daily oral gavage, n = 6
A. muciniphila = format: in vivo; conditions: HFD-fed mice, VAMP 50 mg/kg oral gavage, 8 weeks; colonic contents, 16S rRNA
HFD-induced obese mice = experiment: HFD-induced obese mice, VAMP and/or benzydamine for 4 weeks; format: in vivo; conditions: HFD 8 weeks, then VAMP 50 mg/kg three times per week for 4 weeks, n = 6
[3] = system: other strains of Bacteroides; experiment: Single-strain growth in culture; format: cell-based; conditions: VAMP 50 μM vs PBS, anaerobic, 48 h, OD600 ratio
HFD-fed mice [4] = experiment: HFD-fed mice, TPH or sitagliptin for 8 weeks; format: in vivo; conditions: sitagliptin 12.5 mg/kg daily oral gavage
[5] = HFD plus VAMP 50 mg/kg daily oral gavage, vs HFD-fed control
[6] = HFD plus VAMP 50 mg/kg daily oral gavage, vs vehicle, n = 6

For CSCC[C@H](NC(=O)[C@H](C)NC(=O)[C@@H](N)C(C)C)C(=O)N1CCC[C@H]1C(=O)O [VAMP] (H-VAMP-OH; N-terminus and C-terminus assumed), the “side effects in mice (body weight, food intake, ALT, AST, UREA, CRE)” value (C57BL/6J male SPF mice) was “did not induce any obvious side effects”, the energy intake (HFD-fed mice [1]) was “no significant differences” and the “plasma active GLP-1 level” value (HFD-fed mice [1]) was “increased”. For the same compound, the “plasma total GLP-1 level” value (HFD-fed mice [1]) was “without altering”, the “thickness of colonic mucus layer” value (HFD-fed mice [2]; Alcian blue-stained sections, HFD plus VAMP 50 mg/kg) was “increased thickness of mucus layer” and the “plasma IL-1β level” value (HFD-fed mice [2]; [5]) was “significantly reduced”. The “plasma TNF-α level” value (HFD-fed mice [2]; [5]) was “significantly reduced”, the “plasma endotoxin (LPS) level” value (HFD-fed mice [2]; [5]) was “significantly reduced” and the “fat weight/body weight ratio” value (HFD-fed mice [2]; HFD plus VAMP 50 mg/kg daily oral gavage, vs vehicle) was “significantly decreased”. For the same compound, the “size of adipocytes in white adipose tissue” value (HFD-fed mice [2]; HFD plus VAMP 50 mg/kg daily oral gavage, vs vehicle, 3 mice per group) was “significantly decreased”, the FBG (HFD-fed mice [2]; [6]) was “significantly decreased” and the body weight (HFD-fed mice [2]; [6]) was “significantly decreased”. For the same compound, the fasting insulin level (HFD-fed mice [2]; [6]) was “decreased fasting insulin levels”, the “glucose tolerance (OGTT)” value (HFD-fed mice [2]; [6]) was “improved glucose tolerance” and the “intestinal active GLP-1 level” value (HFD-fed mice [2]; [6]) was “significantly increased”. For the same compound, the “intestinal total GLP-1 level” value (HFD-fed mice [2]; [6]) was “without affecting”, the “plasma active GLP-1 level” value (HFD-fed mice [2]; [6]) was “significantly increased” and the “plasma total GLP-1 level” value (HFD-fed mice [2]; [6]) was “without affecting”. The “expression of intestinal Tjp1, Ocln, Cldn3, and Muc2” value (HFD-fed mice [2]; colonic tissue mRNA, RT-qPCR, HFD plus VAMP 50 mg/kg) was “upregulate”, the FBG (ob/ob mice) was “steadily decreased” and the body weight (ob/ob mice) was “no significant difference”. The energy intake (ob/ob mice) was “no significant difference”, the “intestinal DPP-IV activity” value (ob/ob mice) was “suppressed intestinal DPP-IV activity” and the “intestinal active GLP-1 level” value (ob/ob mice) was “increased the levels”. The “plasma active GLP-1 level” value (ob/ob mice) was “increased the levels”, the “abundance of Akkermansia (genus level)” value (A. muciniphila) was “significantly increased” and the body weight (HFD-induced obese mice) was “significantly decreased”. The “growth of other strains of Bacteroides” value [3] was “failed to stimulate the growth”.

N[C@@H](CC(=O)N1CCn2c(nnc2C(F)(F)F)C1)Cc1cc(F)c(F)cc1F [sitagliptin, Sitagliptin] was tested, and the “glucose metabolism in obese mice” value (HFD-fed mice [4]) was “effectively improved glucose metabolism”.
